Source: ChEMBL document CHEMBL5143528, “Heat shock protein 90 (Hsp90)/Histone deacetylase (HDAC) dual inhibitors for the treatment of azoles-resistant Candida albicans” (Eur J Med Chem, 2022)
Calls of active or inactive are those of the source. The calls are words filed in the database; no cut-off is given here.

Experiments:
Candida albicans [1] = assay type: functional, 0304103; conditions: time 48 hrs
Description: Synergistic antifungal activity against azole-resistant Candida albicans 0304103 assessed as fractional inhibitory concentration in presence of fluconazole incubated for 48 hrs by CLSI based checkerboard microdilution assay

Candida albicans [2] = assay type: functional, 0304103; conditions: time 48 hrs; remark: listed apart in the source
Description: Synergistic antifungal activity against azole-resistant Candida albicans 0304103 assessed as fractional inhibitory concentration incubated for 48 hrs by CLSI based checkerboard microdilution assay

Candida albicans [3] = assay type: functional, 0304103; conditions: time 48 hrs; remark: listed apart in the source
Description: Synergistic antifungal activity against azole-resistant Candida albicans 0304103 assessed as fractional inhibitory concentration index in presence of fluconazole incubated for 48 hrs by CLSI based checkerboard microdilution assay

Candida albicans [4] = experiment: microbe, parasite or virus in culture; assay type: functional; conditions: 0304103, time 48 hrs
Description: Antifungal activity against azole-resistant Candida albicans 0304103 assessed as fungal growth inhibition incubated for 48 hrs by CLSI based checkerboard microdilution assay

A549 = experiment: Cytotoxicity against human A549 cells assessed as inhibition of cell growth; assay type: functional, cell-based
HEL = experiment: Cytotoxicity against human HEL cells assessed as inhibition of cell growth; assay type: functional, cell-based
[5] = Cytotoxicity against human HaCaT cells assessed as inhibition of cell growth; assay type: toxicity, cell-based
[6] = Inhibition of fungal HDAC using Boc-Lys (acetyl)-AMC as substrate preincubated for 12 hrs followed by substrate addition and measured after 6 hrs by fluorescence-based analysis; design: species or system Fungi
[7] = Toxicity in ICR mouse infected with azole-resistant Candida albicans 0304103 assessed as reduction in survival time at 10 mg/kg, ip administered once daily for 5 days; assay type: organism-based; conditions: in vivo, 120 h, time 5 day
Candida albicans [8] = experiment: Inhibition of biofilm formation in azole-resistant Candida albicans 0304103 assessed as downregulation of […] expression at 64 ug/ml by RT-PCR analysis; assay type: functional, organism-based; conditions: dose 64.0 µg/ml
Candida albicans [9] = experiment: Inhibition of biofilm formation in azole-resistant Candida albicans 0304103 assessed as downregulation of HWP1 expression at 64 ug/ml by RT-PCR analysis; assay type: functional, organism-based; conditions: dose 64.0 µg/ml
Candida albicans [10] = experiment: Inhibition of biofilm formation in azole-resistant Candida albicans 0304103 assessed as downregulation of BCR1 expression at 64 ug/ml by RT-PCR analysis; assay type: functional, organism-based; conditions: dose 64.0 µg/ml
Candida albicans [11] = experiment: Inhibition of biofilm formation in azole-resistant Candida albicans 0304103 assessed as downregulation of EAP1 expression at 64 ug/ml by RT-PCR analysis; assay type: functional, organism-based; conditions: dose 64.0 µg/ml
Candida albicans [12] = experiment: Inhibition of biofilm formation in azole-resistant Candida albicans 0304103 at 64 ug/ml incubated for 24 hrs by XTT reduction assay; assay type: functional, organism-based; conditions: dose 64.0 µg/ml
Candida albicans [13] = experiment: Upregulation of ERG11 expression in azole-resistant Candida albicans 0304103 at 8 ug/ml by RT-PCR analysis; assay type: functional; conditions: dose 8.0 µg/ml
Candida albicans [14] = experiment: Downregulation of ERG11 expression in azole-resistant Candida albicans 0304103 at 8 ug/ml in presence of fluconazole by RT-PCR analysis; assay type: functional; conditions: dose 8.0 µg/ml
Candida albicans [15] = experiment: (§1) Antifungal activity against azole-resistant Candida albicans 0304103 infected in ICR mouse assessed as reduction in fungal burden in kidney by measuring smooth kidney tissue at 10 mg/kg, ip administered once daily for 5 days in presence of fluconazole by Periodic acid-Schiff staining based analysis; assay type: functional, organism-based; conditions: time 5.0 day
[16] = Inhibition of fungal HSP90 incubated for 6 hrs in presence of FITC-Geldanamycin by fluorescence polarization analysis; design: species or system Fungi
Candida albicans [17] = experiment: as §1, with “assessed as assessed as reduction in” for “assessed as reduction in”, “by measuring reduction in fungal invasion at 10” for “by measuring smooth kidney tissue at 10”; assay type: functional, organism-based; conditions: time 5.0 day
Candida albicans [18] = experiment: Downregulation of CDR1 expression in azole-resistant Candida albicans 0304103 at 8 ug/ml in presence of fluconazole by RT-PCR analysis; assay type: functional; conditions: dose 8.0 µg/ml
Histone deacetylase = assay type: protein assay, Homo sapiens
Candida albicans [19] = experiment: as §1, with “neat and dense arrangement of cells” for “smooth kidney tissue”; assay type: functional, organism-based; conditions: time 5.0 day
Candida albicans [20] = experiment: Antifungal activity against azole-resistant Candida albicans 0304103 infected in ICR mouse assessed as reduction in fungal burden in kidney at 10 mg/kg, ip administered once daily for 5 days in presence of fluconazole; assay type: functional, organism-based; conditions: time 5.0 day
Heat shock protein HSP90 = Heat shock protein HSP90 (Homo sapiens, UniProt P07900+P08238); experiment: Inhibition of human HSP90; assay type: protein assay

CC(C)c1cc(-c2n[nH]c(=O)n2-c2ccc(C(=O)NCCCCCC(=O)NO)cc2)c(O)cc1O
FIC (Candida albicans [1]): >64 µg/mL
FIC (Candida albicans [2]): >64 µg/mL
fractional inhibitory concentration index (FICI) (Candida albicans [3]): 2
MIC80 (Candida albicans [4]): > 64 µg/mL
IC50 (A549): 4.6 µM
IC50 (HEL): 4.6 µM

CC(C)c1cc(-c2n[nH]c(=O)n2-c2ccc(NC(=O)CCCCCC(=O)NO)cc2)c(O)cc1O
FIC (Candida albicans [1]): 8 µg/mL
FIC (Candida albicans [2]): 8 µg/mL
fractional inhibitory concentration index (FICI) (Candida albicans [3]): 0.25
MIC80 (Candida albicans [4]): > 64 µg/mL
IC50 (A549): 0.024 µM
IC50 (HEL): 0.024 µM

CC(C)c1cc(-c2n[nH]c(=O)n2-c2ccc(C(=O)NCCCC(=O)NO)cc2)c(O)cc1O
FIC (Candida albicans [1]): 1 µg/mL
FIC (Candida albicans [2]): 16 µg/mL
fractional inhibitory concentration index (FICI) (Candida albicans [3]): 0.266
MIC80 (Candida albicans [4]): > 64 µg/mL
IC50 (A549): 4.6 µM
IC50 (HEL): 4.6 µM

CC(C)c1cc(-c2n[nH]c(=O)n2-c2ccc(C(=O)NCCCCC(=O)NO)cc2)c(O)cc1O
FIC (Candida albicans [1]): 8 µg/mL
FIC (Candida albicans [2]): 4 µg/mL
fractional inhibitory concentration index (FICI) (Candida albicans [3]): 0.188
MIC80 (Candida albicans [4]): > 64 µg/mL
IC50 (A549): 4.6 µM
IC50 (HEL): 4.6 µM

O=C(CCCCCCC(=O)Nc1ccccc1)NO [VORINOSTAT]
IC50 [5]: 1.85 µM
IC50 [6]: 3.6 µM
Activity [7]: Toxic

CC(C)c1cc(-c2n[nH]c(=O)n2-c2ccc(C(=O)NCCCCCCC(=O)NO)cc2)c(O)cc1O
FIC (Candida albicans [1]): 1 µg/mL
FIC (Candida albicans [2]): 16 µg/mL
fractional inhibitory concentration index (FICI) (Candida albicans [3]): 0.266
MIC80 (Candida albicans [4]): > 64 µg/mL
IC50 (A549): 4.6 µM
IC50 (HEL): 4.6 µM

CC(C)c1cc(-c2n[nH]c(=O)n2-c2cccc(NC(=O)CCCCC(=O)NO)c2)c(O)cc1O
FIC (Candida albicans [1]): 32 µg/mL
FIC (Candida albicans [2]): 64 µg/mL
fractional inhibitory concentration index (FICI) (Candida albicans [3]): 1.5
MIC80 (Candida albicans [4]): > 64 µg/mL
IC50 (A549): 1.6 µM
IC50 (HEL): 1.6 µM

CC(C)c1cc(-c2n[nH]c(=O)n2-c2cccc(C(=O)NCCCCCCC(=O)NO)c2)c(O)cc1O
inhibition (Candida albicans [8]): Active
FIC (Candida albicans [1]): 1 µg/mL
FIC (Candida albicans [2]): 8 µg/mL
inhibition (Candida albicans [9]): Active
IC50 [5]: > 6.13 µM
fractional inhibitory concentration index (FICI) (Candida albicans [3]): 0.141
inhibition (Candida albicans [10]): Active
inhibition (Candida albicans [11]): Active
MIC80 (Candida albicans [4]): > 64 µg/mL
IC50 (A549): 4.6 µM
inhibition (Candida albicans [12]): Active
IC50 (HEL): 4.6 µM

OC(Cn1cncn1)(Cn1cncn1)c1ccc(F)cc1F
Activity (Candida albicans [13]): Active

CC(C)c1cc(-c2n[nH]c(=O)n2-c2cccc(C(=O)NCCCC(=O)NO)c2)c(O)cc1O
FIC (Candida albicans [1]): 64 µg/mL
FIC (Candida albicans [2]): 64 µg/mL
fractional inhibitory concentration index (FICI) (Candida albicans [3]): 2
MIC80 (Candida albicans [4]): > 64 µg/mL
IC50 (A549): 4.6 µM
IC50 (HEL): 4.6 µM

CC(C)c1cc(-c2n[nH]c(=O)n2-c2ccc(NC(=O)CCCCC(=O)NO)cc2)c(O)cc1O
FIC (Candida albicans [1]): 16 µg/mL
FIC (Candida albicans [2]): 16 µg/mL
fractional inhibitory concentration index (FICI) (Candida albicans [3]): 0.5
MIC80 (Candida albicans [4]): > 64 µg/mL
IC50 (A549): 0.024 µM
IC50 (HEL): 0.024 µM

CC(C)c1cc(-c2n[nH]c(=O)n2-c2cccc(C(=O)NCCCCCC(=O)NO)c2)c(O)cc1O
FIC (Candida albicans [1]): 64 µg/mL
FIC (Candida albicans [2]): 16 µg/mL
fractional inhibitory concentration index (FICI) (Candida albicans [3]): 1.25
MIC80 (Candida albicans [4]): > 64 µg/mL
IC50 (A549): 4.6 µM
IC50 (HEL): 4.6 µM

CC(C)c1cc(-c2n[nH]c(=O)n2-c2cccc(C(=O)NCCCCC(=O)NO)c2)c(O)cc1O
FIC (Candida albicans [1]): 64 µg/mL
FIC (Candida albicans [2]): 16 µg/mL
fractional inhibitory concentration index (FICI) (Candida albicans [3]): 1.25
MIC80 (Candida albicans [4]): > 64 µg/mL
IC50 (A549): 4.6 µM
IC50 (HEL): 4.6 µM

CC(C)c1cc(-c2n[nH]c(=O)n2-c2ccc(C(=O)NCCCCCCCC(=O)NO)cc2)c(O)cc1O
inhibition (Candida albicans [8]): Active
FIC (Candida albicans [1]): 1 µg/mL
Activity (Candida albicans [14]): Active
FIC (Candida albicans [2]): 16 µg/mL
Activity (Candida albicans [15]): Active
IC50 [16]: 0.83 µM
inhibition (Candida albicans [9]): Active
Activity (Candida albicans [17]): Active
IC50 [5]: > 6.13 µM
fractional inhibitory concentration index (FICI) (Candida albicans [3]): 0.266
inhibition (Candida albicans [10]): Active
Activity (Candida albicans [18]): Active
IC50 [6]: 0.91 µM
IC50 (Histone deacetylase): 3 µM
inhibition (Candida albicans [11]): Active
Activity (Candida albicans [19]): Active
MIC80 (Candida albicans [4]): > 64 µg/mL
Activity (Candida albicans [20]): Active
IC50 (A549): 4.6 µM
inhibition (Candida albicans [12]): Active
IC50 (Heat shock protein HSP90): 19.52 µM
IC50 (HEL): 4.6 µM

CC(C)c1cc(-c2n[nH]c(=O)n2-c2ccc(NC(=O)CCCC(=O)NO)cc2)c(O)cc1O
FIC (Candida albicans [1]): 1 µg/mL
FIC (Candida albicans [2]): 4 µg/mL
fractional inhibitory concentration index (FICI) (Candida albicans [3]): 0.078
MIC80 (Candida albicans [4]): > 64 µg/mL
IC50 (A549): 0.024 µM
IC50 (HEL): 0.024 µM

CC(C)c1cc(-c2n[nH]c(=O)n2-c2ccc(NC(=O)CCCCCCC(=O)NO)cc2)c(O)cc1O
FIC (Candida albicans [1]): 4 µg/mL
FIC (Candida albicans [2]): 8 µg/mL
fractional inhibitory concentration index (FICI) (Candida albicans [3]): 0.188
MIC80 (Candida albicans [4]): > 64 µg/mL
IC50 (A549): 0.024 µM
IC50 (HEL): 0.024 µM

CNC(=O)CCCCCCCNC(=O)c1cccc(-n2c(-c3cc(C(C)C)c(O)cc3O)n[nH]c2=O)c1
FIC (Candida albicans [1]): 2 µg/mL
FIC (Candida albicans [2]): 8 µg/mL
IC50 [5]: > 6.13 µM
fractional inhibitory concentration index (FICI) (Candida albicans [3]): 0.156
MIC80 (Candida albicans [4]): > 64 µg/mL
IC50 (A549): 4.6 µM
IC50 (HEL): 4.6 µM

CC(C)c1cc(-c2n[nH]c(=O)n2-c2cccc(NC(=O)CCCCCC(=O)NO)c2)c(O)cc1O
FIC (Candida albicans [1]): 32 µg/mL
FIC (Candida albicans [2]): 64 µg/mL
fractional inhibitory concentration index (FICI) (Candida albicans [3]): 1.5
MIC80 (Candida albicans [4]): > 64 µg/mL
IC50 (A549): 1.6 µM
IC50 (HEL): 1.6 µM

CC(C)c1cc(-c2n[nH]c(=O)n2-c2ccc3c(ccn3C)c2)c(O)cc1O [GANETESPIB]
FIC (Candida albicans [1]): 1 µg/mL
FIC (Candida albicans [2]): 0.5 µg/mL
IC50 [16]: 0.66 µM
IC50 [5]: < 0.015 µM
Activity [7]: Toxic
MIC80 (Candida albicans [4]): > 64 µg/mL

CC(C)c1cc(-c2n[nH]c(=O)n2-c2cccc(NC(=O)CCCCCCC(=O)NO)c2)c(O)cc1O
FIC (Candida albicans [1]): 2 µg/mL
FIC (Candida albicans [2]): 8 µg/mL
fractional inhibitory concentration index (FICI) (Candida albicans [3]): 0.156
MIC80 (Candida albicans [4]): > 64 µg/mL
IC50 (A549): 1.6 µM
IC50 (HEL): 1.6 µM
